What was measured:
[1] = Excretion mass balance in rats after a single oral dose of [14C]MGL-3196 (Group 1); type: in vivo, rat; settings: for Percent Recovery, Carcass / Percent Recovery, Residues / Percent Recovery, Total: totals up to 168 h
Procedure: (§1) The study utilized 2 groups of male SD rats (Groups 1 and 2) and 1 group of male LE rats (Group 3); which were obtained from Hilltop Lab Animals, Inc. (Scottdale, Pa.). Group 1 was used for evaluation of excretion mass balance; Group 2 was used for evaluation of plasma total radioactivity PK; and Group 3 was used for evaluation of tissue distribution of total radioactivity. All rats received a single PO dose of [^14C]MGL-3196. The target dose was 5 mg/kg using a formulation prepared in a 4% DMSO/96% of 2% Klucel, 0.1% Tween-80, 0.09% methylparaben and 0.01% propylparaben in purified MilliQ water vehicle.
The following studies have been conducted: (a) in vitro drug protein binding, transporter (organic anion transporting polypeptide [OATP], P-glycoprotein [P-gp], breast cancer-related protein [BCRP], and multiple drug resistance protein 1 [MDR1]), and cytochrome P-450 enzyme assays to investigate absorption, distribution, and excretion; (b) in vivo MGL-3196 rat and dog oral PK and bioavailability studies; (c) in vivo ^14C-MGL-3196 rat and dog oral pharmacokinetics, absorption, excretion, and tissue distribution by quantitative whole-body autoradiography (QWBA) studies; and (d) liver disposition of MGL-3196 using an in vitro sandwiched hepatocyte model system (B-CLEAR® technology) in dog (SCDH) and human (SCHH) hepatocytes.

[2] = Tissue distribution by quantitative whole-body autoradiography, blood and plasma radioactivity in LE rats (Group 3); type: in vivo, rat; settings: for Tissue to Plasma Ratio, Adrenal Gland / Tissue to Plasma Ratio, Heart / Tissue to Plasma Ratio, Kidney / Tissue to Plasma Ratio, Liver / Tissue to Plasma Ratio, Lung / Tissue to Plasma Ratio, Muscle / Tissue to Plasma Ratio, Skin / Tissue to Plasma Ratio, Spleen / Tissue to Plasma Ratio, Thyroid / Tissue to Plasma Ratio, Brain: rat
Procedure: as §1

[3] = Plasma total radioactivity pharmacokinetics in SD rats (Group 2); type: in vivo, rat
Procedure: as §1

[4] = Dog 14C-MGL-3196 mass balance study; type: in vivo
Source text: Tables 2A-2B show ^14C-MGL-3196 dog ADME study design.

[5] = male SD rats Group 1, single PO 5 mg/kg, mean
[6] = male SD rats Group 1, single PO 5 mg/kg, mean, through 168 h
[7] = male LE rats Group 3, single PO 5 mg/kg
[8] = pigmented male rats, single PO dose
[9] = male SD rats Group 2, single PO 5 mg/kg
[10] = 3 male beagle dogs, 0-168 hr post-dose, Mean ± SD (% RSD)

## CC(C)c1cc(Oc2c(Cl)cc(-n3nc(C#N)c(=O)[nH]c3=O)cc2Cl)n[nH]c1=O [[^14C]MGL-3196]
[1]; Mean
  Percent Recovery, Carcass: 1.1%
  Percent Recovery, Residues: 1.3%
  Percent Recovery, Total: 87.2%
[1]; Ra#3
  Percent Recovery, Carcass: 1.0%
  Percent Recovery, Residues: 0.9%
  Percent Recovery, Total: 87.3%
[1]; Rat#1
  Percent Recovery, Carcass: 1.1%
  Percent Recovery, Residues: 1.7%
  Percent Recovery, Total: 82.6%
[1]; Rat#2
  Percent Recovery, Carcass: 1.2%
  Percent Recovery, Residues: 1.3%
  Percent Recovery, Total: 91.7%
[1]; [5]
  radioactivity recovered in the cage residues, % of the administered dose: 1.3%
  radioactivity recovered in the carcass, % of the administered dose: 1.1%
[1]; [6]
  radioactivity recovered in the feces, % of the administered dose: 68.6%
  radioactivity recovered in the urine, % of the administered dose: 16.2%
  total recovery of radioactivity, % of the administered dose: 87.2%
[2]; 1 h
  Tissue to Plasma Ratio, Adrenal Gland: 0.34
  Tissue to Plasma Ratio, Heart: 0.30
  Tissue to Plasma Ratio, Kidney: 3.51
  Tissue to Plasma Ratio, Liver: 16.28
  Tissue to Plasma Ratio, Lung: 0.41
  Tissue to Plasma Ratio, Muscle: 0.12
  Tissue to Plasma Ratio, Skin: 0.21
  Tissue to Plasma Ratio, Spleen: 0.17
  Tissue to Plasma Ratio, Thyroid: 0.27
[2]; 2 h
  Tissue to Plasma Ratio, Adrenal Gland: 0.35
  Tissue to Plasma Ratio, Heart: 0.26
  Tissue to Plasma Ratio, Kidney: 2.28
  Tissue to Plasma Ratio, Liver: 12.40
  Tissue to Plasma Ratio, Lung: 0.42
  Tissue to Plasma Ratio, Muscle: 0.07
  Tissue to Plasma Ratio, Skin: 0.23
  Tissue to Plasma Ratio, Spleen: 0.10
  Tissue to Plasma Ratio, Thyroid: 0.45
[2]; 4 h
  Tissue to Plasma Ratio, Adrenal Gland: 0.28
  Tissue to Plasma Ratio, Brain: 0.03
  Tissue to Plasma Ratio, Heart: 0.29
  Tissue to Plasma Ratio, Kidney: 2.97
  Tissue to Plasma Ratio, Liver: 12.76
  Tissue to Plasma Ratio, Lung: 0.48
  Tissue to Plasma Ratio, Muscle: 0.07
  Tissue to Plasma Ratio, Skin: 0.30
  Tissue to Plasma Ratio, Spleen: 0.13
  Tissue to Plasma Ratio, Thyroid: 0.20
[2]; 8 h
  Tissue to Plasma Ratio, Adrenal Gland: 0.56
  Tissue to Plasma Ratio, Brain: 0.09
  Tissue to Plasma Ratio, Heart: 0.62
  Tissue to Plasma Ratio, Kidney: 2.98
  Tissue to Plasma Ratio, Liver: 11.90
  Tissue to Plasma Ratio, Lung: 0.68
  Tissue to Plasma Ratio, Muscle: 0.23
  Tissue to Plasma Ratio, Skin: 0.72
  Tissue to Plasma Ratio, Spleen: 0.36
  Tissue to Plasma Ratio, Thyroid: 0.46
[2]; Cmax
  Tissue to Plasma Ratio, Adrenal Gland: 0.51
  Tissue to Plasma Ratio, Brain: 0.08
  Tissue to Plasma Ratio, Heart: 0.57
  Tissue to Plasma Ratio, Kidney: 2.97
  Tissue to Plasma Ratio, Liver: 12.76
  Tissue to Plasma Ratio, Lung: 0.62
  Tissue to Plasma Ratio, Muscle: 0.21
  Tissue to Plasma Ratio, Skin: 0.65
  Tissue to Plasma Ratio, Spleen: 0.33
  Tissue to Plasma Ratio, Thyroid: 0.42
[2]; male LE rats
  Radioactivity concentrations at 1392 h post-dose in 7 of 40 tissues (blood, liver, Harderian gland, pancreas, pigmented skin, lung, eye lens): > 7.90 ng equiv/g
  radioactivity quantifiable in blood through: 768 h
  radioactivity quantifiable in plasma through: 168 h
[2]; [7]
  AUCinf obs of blood total radioactivity: 54361 ng equiv·h/g
  AUCinf obs of plasma total radioactivity: 20430 ng equiv·h/mL
  Cmax of plasma total radioactivity (by LSC): 1078 ng equiv/mL
[2]; [8]
  Liver AUC (exposure) higher than plasma: approximately 10 ×
  blood AUC higher than plasma: about 2 ×
  kidney cortex AUC higher than plasma: approximately 3 ×
  liver:plasma AUCall ratio: 10.5
[2]; pigmented male rats, single PO dose, listed as 14C-MGL-3196
  Liver AUC (exposure) higher than plasma: ~10 ×
[2]; throughout the distribution phase (up to 8 h post-dose)
  Tissue to plasma ratios for all tissues except liver, kidney, urinary bladder, and cecum: < 1
[3]; [9]
  mean AUCinf obs of plasma total radioactivity: 25346 ng equiv·h/mL
  mean Cmax of plasma total radioactivity: 2230 ng equiv/mL
[3]; male SD rats, last time point for this group
  radioactivity quantifiable in plasma through: 48 h
[4]; [10]
  % of Dose in Cage Residue: 4.55 ± 3.399 (74.8) %
  % of Dose in Feces: 76.3 ± 25.62 (33.6) %
  % of Dose in Urine: 2.57 ± 1.296 (50.4) %
  Total % of Dose Recovered (urine + feces + cage residue): 83.37 ± 24.063 (28.9) %
[4]; dog, 100 mg/kg
  % of total administered recovered in feces: ~83%
  % of total administered recovered in urine: 2.5%
  share of the radioactivity recovered that was in feces: at least 92%
  share of the radioactivity recovered that was in urine: 2.7%

— patent US11090308B2, “Methods of treating liver disorders or lipid disorders with a THR-beta agonist” (Madrigal Pharmaceuticals, Inc., priority 2016, dated 2021)
